This note sets out measurements from patent publication US12264173B2 (GILEAD SCIENCES, INC., priority 2020, dated 2025).

Assay type in all cases: cell-based
One experiment deals with DENV2 replicon. Nature of the experiment: DENV-2 Huh-7 Rep EC50 (replicon luminescence). An outline of the steps:
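EC50 derived from luminescence dose-response, normalised to DMSO-only 0% inhibition wells, after 1.5 h with EnduRen substrate. Compounds were first exposed for 48 h at 37° C to DENV2 replicon Huh-7 cells (5,000/well).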
In general terms: A replicon is a self-replicating genome or part of one, used to study replication in cells.

In the next experiment the test system is RSV strain A2. Nature of the experiment: microbe, parasite or virus in culture. As to conditions: Table 3, HEp-2 cells, RSV A2, 4 days, read-out: RSV HEp-2 EC50. In short, it runs like this: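 Cytopathic-effect protection assay: HEp-2 cells (50,000/mL) infected with pre-titered RSV A2 onto 3-fold serial compound dilutions, incubated 4 days at 37° C. Cell viability read by CellTiter-Glo luminescence; percent inhibition derived against 0% and 100% virus-inhibition controls.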

The subject of another experiment is HRV16. Description: HRV16 HeLa EC50 (cytopathic effect in H1-HeLa cells). In short, it runs like this:
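Read-out is luminescent cell viability (CellTiter-Glo) after 96 h of infection at 33 °C, scaled between uninfected and infected-untreated wells. Before infection with titrated virus, compounds went onto H1-HeLa cells as triplicate 3-fold dilution series.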
(Cytopathic effects are the visible damage that an infection or toxin causes in cultured cells.)

The next experiment deals with RSV A2. Nature of the experiment: RSV NHBE EC50 (RSV A2 antiviral assay in NHBE cells). The following applies: Table 3, NHBE cells, RSV A2, 4 days, read-out: RSV NHBE EC50. An outline of the steps: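 Luminescent ATP-based viability was recorded in RSV A2-infected normal human bronchial epithelial cells exposed to serially diluted compound (3-fold steps, 0.05% DMSO). Infection used 1×10^4.5 TCID/mL, with a 4-day incubation at 37° C.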

Setting [1] is: Dengue virus, DENV2, Huh-7, 48 h, read-out: DENV-2 REP Huh7 EC50.
The mark [2] stands for this setting: human respiratory syncytial virus, HEp-2, 96 h.
Where [3] appears, read: 96 h, Table 3; H1-HeLa cells, 96 h; read-out: HRV16 HeLa EC50.
The mark [4] stands for this setting: human respiratory syncytial virus, NHBE, 96 h.
Setting [5] is: Table 3, Huh-7 DENV2 replicon cells, 48 hours, read-out: DENV-2 REP Huh7 EC50.
[6] abbreviates: Table 3; H1-HeLa cells, 96 h; read-out: HRV16 HeLa EC50.

Like-named read-outs stand apart in the source and are kept apart here.

Broadly, the EC50 is the concentration giving half of the maximal effect. With `CC(C)C(=O)O[C@H]1[C@H](c2ccc3c(N)ncnn23)O[C@](C#N)(CO[P@@](=O)(N[C@@H](C)C(=O)O[C@H]2CC[C@H](C(C)(C)C)CC2)Oc2ccccc2)[C@H]1OC(=O)C(C)C` [Example 80, (2R,3S,4S,5S)-5-(4-Aminopyrrolo[2,1-f][1,2,4]triazin-7-yl)-2-((((S)-(((S)-1-(((1r,4S)-4-(tert-butyl)cyclohexyl)oxy)-1-oxopropan-2-yl)amino)(phenoxy)phosphoryl)oxy)methyl)-2-cyanotetrahydrofuran-3,4-diyl bis(2-methylpropanoate)], the EC50 turned out to be 5300 nM in the experiment with DENV2 replicon (setting [1]), 1180 nM with RSV strain A2 (setting [2]), 1570 nM in the experiment with HRV16 (setting [3]) and 158 nM in the experiment with RSV A2 (setting [4]).

As for `CC(C)OC(=O)[C@H](C)N[P@](=O)(OC[C@@]1(C#N)O[C@@H](c2ccc3c(N)ncnn23)[C@H](OC(=O)C(C)C)[C@@H]1OC(=O)C(C)C)Oc1ccccc1` [Example 84, (2R,3S,4S,5S)-5-(4-aminopyrrolo[2,1-f][1,2,4]triazin-7-yl)-2-cyano-2-((((S)-(((S)-1-isopropoxy-1-oxopropan-2-yl)amino)(phenoxy)phosphoryl)oxy)methyl) tetrahydrofuran-3,4-diyl bis(2-methylpropanoate)], the 50% effective concentration (EC50) amounted to 13000 nM in the experiment on DENV2 replicon (setting [1]), 58 nM in the experiment on RSV strain A2 (setting [2]), 121 nM with HRV16 (setting [3]) and 16 nM in the experiment with RSV A2 (setting [4]).

`CC(C)C(=O)O[C@H]1[C@H](c2ccc3c(N)ncnn23)O[C@](C#N)(COP(=O)(N[C@@H](C)C(=O)OC[C@H]2CC[C@H](C(F)(F)F)CC2)Oc2ccccc2)[C@H]1OC(=O)C(C)C` (stereo partly shown) [Example 87]: the EC50 with DENV2 replicon (setting [1]) worked out at 12300 nM; in the experiment on RSV strain A2 (setting [2]), 119 nM; in the experiment on HRV16 (setting [3]) it was 220 nM; in the experiment on RSV A2 (setting [4]), 23 nM.

For `CC(=O)O[C@H]1[C@H](c2ccc3c(N)ncnn23)O[C@](C#N)(CO[P@@](=O)(N[C@@H](C)C(=O)OC(C)C)Oc2ccccc2)[C@H]1OC(C)=O` [Example 89, (2R,3S,4S,5S)-5-(4-Aminopyrrolo[2,1-f][1,2,4]triazin-7-yl)-2-cyano-2-((((S)-(((S)-1-isopropoxy-1-oxopropan-2-yl)amino)(phenoxy)phosphoryl)oxy)methyl) tetrahydrofuran-3,4-diyl diacetate], the EC50 is 49700 nM with DENV2 replicon (setting [1]), 195 nM in the experiment with RSV strain A2 (setting [2]), 785 nM in the experiment with HRV16 (setting [3]) and 126 nM in the experiment on RSV A2 (setting [4]).

Regarding `CCC(=O)OC1C(c2ccc3c(N)ncnn23)OC(C#N)(COP(=O)(NC(C)C(=O)OCC2CCC2)Oc2ccccc2)C1OC(=O)CC` (stereo not shown) [Example 92], the EC50 with DENV2 replicon (setting [5]) turned out to be 13600 nM; in the experiment with RSV strain A2, 41 nM; with HRV16 (setting [6]), 104 nM; in the experiment on RSV A2, 33 nM.

In the case of `CCC(=O)OC1C(c2ccc3c(N)ncnn23)OC(C#N)(COP(=O)(NC(C)C(=O)OCC2CCC2)Oc2ccccc2)C1OC(=O)CC` (stereo not shown) [Example 93], the 50% effective concentration (EC50) amounted to 12800 nM with DENV2 replicon (setting [5]), 48 nM in the experiment on RSV strain A2, 171 nM in the experiment with HRV16 (setting [6]) and 25 nM in the experiment with RSV A2.

On to `CC(=O)O[C@H]1[C@H](c2ccc3c(N)ncnn23)O[C@](C#N)(CO[P@@](=O)(N[C@@H](C)C(=O)OCC2CCC2)Oc2ccccc2)[C@H]1OC(C)=O` [Example 95], for which the EC50 turned out to be 19800 nM with DENV2 replicon (setting [5]), 90 nM in the experiment on RSV strain A2, 429 nM in the experiment on HRV16 (setting [6]) and 20 nM with RSV A2.

With `CC(=O)O[C@H]1[C@H](c2ccc3c(N)ncnn23)O[C@](C#N)(CO[P@](=O)(N[C@@H](C)C(=O)OCC2CCC2)Oc2ccccc2)[C@H]1OC(C)=O` [Example 96], the EC50 in the experiment on DENV2 replicon (setting [5]) was 16800 nM; with RSV strain A2, 63 nM; with HRV16 (setting [6]), 417 nM; in the experiment with RSV A2, 20 nM.

For the compound `CC(C)C(=O)O[C@H]1[C@H](c2ccc3c(N)ncnn23)O[C@](C#N)(COP(=O)(NCCOC(=O)C(C)(C)C)Oc2ccccc2)[C@H]1OC(=O)C(C)C` (stereo partly drawn) [Example 97, (2R,3S,4S,5S)-5-(4-aminopyrrolo[2,1-f][1,2,4]triazin-7-yl)-2-cyano-2-(((phenoxy((2-(pivaloyloxy)ethyl)amino)phosphoryl)oxy)methyl)tetrahydrofuran-3,4-diyl bis(2-methylpropanoate)], the EC50 in the experiment with DENV2 replicon (setting [1]) was 9050 nM; in the experiment with RSV strain A2 (setting [2]), 366 nM; with HRV16 (setting [3]) it was 1120 nM; with RSV A2 (setting [4]) it was > 5000 nM.

Regarding `CC(=O)O[C@H]1[C@H](c2ccc3c(N)ncnn23)O[C@](C#N)(CO[P@@](=O)(N[C@@H](C)C(=O)OCC2CC2)Oc2ccccc2)[C@H]1OC(C)=O` [Example 102], the EC50 was 39100 nM in the experiment with DENV2 replicon (setting [5]), 178 nM in the experiment with RSV strain A2, 526 nM in the experiment with HRV16 (setting [6]) and 18 nM with RSV A2.

On to `CCOC(=O)[C@H](C)N[P@](=O)(OC[C@@]1(C#N)O[C@@H](c2ccc3c(N)ncnn23)[C@H](OC(C)=O)[C@@H]1OC(C)=O)Oc1ccccc1` [Example 104, (2R,3S,4S,5S)-5-(4-aminopyrrolo[2,1-f][1,2,4]triazin-7-yl)-2-cyano-2-((((S)-(((S)-1-ethoxy-1-oxopropan-2-yl)amino)(phenoxy)phosphoryl)oxy)methyl) tetrahydrofuran-3,4-diyl diacetate], for which the EC50 in the experiment on DENV2 replicon (setting [1]) worked out at 29100 nM; with RSV strain A2 (setting [2]), 147 nM; in the experiment on HRV16 (setting [3]), 703 nM; in the experiment on RSV A2 (setting [4]) it was 32 nM.

In the case of `CCOC(=O)[C@H](C)N[P@](=O)(OC[C@@]1(C#N)O[C@@H](c2ccc3c(N)ncnn23)[C@H](OC(=O)CC)[C@@H]1OC(=O)CC)Oc1ccccc1` [Example 105, (2R,3S,4S,5S)-5-(4-Aminopyrrolo[2,1-f][1,2,4]triazin-7-yl)-2-cyano-2-((((S)-(((S)-1-ethoxy-1-oxopropan-2-yl)amino)(phenoxy)phosphoryl)oxy)methyl) tetrahydrofuran-3,4-diyl dipropionate], the EC50 in the experiment with DENV2 replicon (setting [1]) is 12900 nM; in the experiment on RSV strain A2 (setting [2]), 57 nM; in the experiment with HRV16 (setting [3]), 182 nM; in the experiment with RSV A2 (setting [4]), 13 nM.

For the compound `CC(C)OC(=O)[C@H](C)N[P@](=O)(OC[C@@]1(C#N)O[C@@H](c2ccc3c(NC(=O)C(C)C)ncnn23)[C@H](OC(=O)C(C)C)[C@@H]1OC(=O)C(C)C)Oc1ccccc1` [Example 106], the 50% effective concentration (EC50) was found to be 14600 nM with DENV2 replicon (setting [1]), 173 nM in the experiment with RSV strain A2 (setting [2]), 805 nM in the experiment with HRV16 (setting [3]) and 15 nM with RSV A2 (setting [4]).

`CCC(=O)O[C@H]1[C@H](c2ccc3c(N)ncnn23)O[C@](C#N)(CO[P@@](=O)(N[C@@H](C)C(=O)OCC2CCOCC2)Oc2ccccc2)[C@H]1OC(=O)CC` [Example 108]: the EC50 amounted to 39300 nM with DENV2 replicon (setting [5]), 217 nM with RSV strain A2, 385 nM in the experiment with HRV16 (setting [6]) and 6 nM in the experiment with RSV A2.

For the compound `CCC(=O)O[C@H]1[C@H](c2ccc3c(N)ncnn23)O[C@](C#N)(CO[P@](=O)(N[C@@H](C)C(=O)OCC2CCOCC2)Oc2ccccc2)[C@H]1OC(=O)CC` [Example 109], the half-maximal effective concentration (EC50) in the experiment on DENV2 replicon (setting [5]) is 26300 nM; in the experiment with RSV strain A2, 103 nM; in the experiment with HRV16 (setting [6]), 379 nM; in the experiment with RSV A2, 32 nM.

For `CC(=O)O[C@H]1[C@H](c2ccc3c(N)ncnn23)O[C@](C#N)(CO[P@](=O)(N[C@@H](C)C(=O)OCC2CCOCC2)Oc2ccccc2)[C@H]1OC(C)=O` [Example 112], the EC50 came to 36500 nM in the experiment on DENV2 replicon (setting [5]), 284 nM in the experiment with RSV strain A2, 2900 nM in the experiment with HRV16 (setting [6]) and 40 nM with RSV A2.

As for `CCC(CC)COC(=O)[C@H](C)NP(=O)(N[C@@H](C)C(=O)OCC(CC)CC)OC[C@@]1(C#N)O[C@@H](c2ccc3c(N)ncnn23)[C@H](OC(C)=O)[C@@H]1OC(C)=O` [Example 114, (2R,3S,4S,5S)-5-(4-Aminopyrrolo[2,1-f][1,2,4]triazin-7-yl)-2-cyano-2-((((((S)-1-(2-ethylbutoxy)-1-oxopropan-2-yl)amino)(((2S)-1-(2-ethylbutoxy)-1-oxopropan-2-yl)amino)phosphoryl)oxy)methyl)tetrahydrofuran-3,4-diyl diacetate], the EC50 in the experiment on DENV2 replicon (Dengue virus, DENV2, Huh-7, 48 h, read-out: DENV-2 REP Huh7 EC50, Table 3, Huh-7 DENV2 replicon cells, 48 hours) was 26300 nM; in the experiment on RSV strain A2 (setting [2]), 1660 nM; in the experiment on HRV16 (setting [3]) it was 3850 nM; in the experiment on RSV A2 (setting [4]), 201 nM.

`CCC(=O)O[C@H]1[C@H](c2ccc3c(N)ncnn23)O[C@](C#N)(CO[P@@](=O)(N[C@@H](C)C(=O)OCC2CCN(CC(F)(F)F)CC2)Oc2ccccc2)[C@H]1OC(=O)CC` [Example 116]: the EC50 in the experiment on DENV2 replicon (setting [5]) is 19700 nM; in the experiment with RSV strain A2 it was 273 nM; in the experiment with HRV16 (setting [6]) it was 303 nM; in the experiment on RSV A2 it was 15 nM.

For the compound `CCC(=O)O[C@H]1[C@H](c2ccc3c(N)ncnn23)O[C@](C#N)(CO[P@](=O)(N[C@@H](C)C(=O)OCC2CCN(CC(F)(F)F)CC2)Oc2ccccc2)[C@H]1OC(=O)CC` [Example 117], the EC50 in the experiment on DENV2 replicon (setting [5]) was determined as 19100 nM; in the experiment with RSV strain A2, 113 nM; in the experiment on HRV16 (setting [6]), 462 nM; in the experiment with RSV A2, 20 nM.
